The text below walks through data of ChEMBL document CHEMBL2074157, “The modified dipeptide, enalapril, an angiotensin-converting enzyme inhibitor, is transported by the rat liver organic anion transport protein” (Hepatology, 1998).

Common to all, as to assay type: functional, cell-based
The target in series [1] is T1, Solute carrier organic anion transporter family member 1A1 (Rattus norvegicus, UniProt P46720).
T1 sequence (P46720 whole entry): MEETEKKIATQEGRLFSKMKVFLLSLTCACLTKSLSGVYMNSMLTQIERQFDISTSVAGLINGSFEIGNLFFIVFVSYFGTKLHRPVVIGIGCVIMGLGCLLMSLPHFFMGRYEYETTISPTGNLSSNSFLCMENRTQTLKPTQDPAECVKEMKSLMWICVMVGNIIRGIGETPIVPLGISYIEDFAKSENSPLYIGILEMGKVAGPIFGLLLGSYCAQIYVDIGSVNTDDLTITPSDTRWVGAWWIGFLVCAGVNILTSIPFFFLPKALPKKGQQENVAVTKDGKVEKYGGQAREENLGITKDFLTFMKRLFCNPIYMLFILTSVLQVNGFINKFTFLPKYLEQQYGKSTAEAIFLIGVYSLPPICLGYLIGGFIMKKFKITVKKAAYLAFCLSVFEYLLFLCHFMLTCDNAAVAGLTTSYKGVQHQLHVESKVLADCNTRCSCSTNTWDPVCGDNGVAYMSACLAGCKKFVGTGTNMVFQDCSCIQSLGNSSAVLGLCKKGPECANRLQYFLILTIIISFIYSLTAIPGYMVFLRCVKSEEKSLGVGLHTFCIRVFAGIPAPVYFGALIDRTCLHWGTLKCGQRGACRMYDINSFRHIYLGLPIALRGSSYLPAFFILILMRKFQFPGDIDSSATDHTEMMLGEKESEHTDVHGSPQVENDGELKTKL
The series is described as follows: TP_TRANSPORTER: inhibition of Enalapril uptake in Oatp1-expressing HeLa cells.

The target in series [2] is T1, Solute carrier organic anion transporter family member 1A1. The series is described as follows: (§1) TP_TRANSPORTER: uptake in Oatp1-expressing HeLa cells. Particulars: human.
Series [3] addresses T2, Oatp1 (Solute carrier organic anion transporter family member 1A1) (Rattus norvegicus, UniProt P46720).
T2 sequence (P46720 whole entry): T1 sequence (P46720 whole entry)
Description: TP_TRANSPORTER: inhibition of Enalapril uptake (Enalapril: ? uM, BSP-SG: 200 uM) in Oatp1-expressing HeLa cells. Also noted: scale not given: the % may be the effect or the level left. The following applies: human, probe Enalapril, read-out: Activity.

Series [4] has as its target T2, Oatp1 (Solute carrier organic anion transporter family member 1A1). The series is described as follows: TP_TRANSPORTER: inhibition of Enalapril uptake (Enalapril: ? uM, E1S: 100 uM) in Oatp1-expressing HeLa cells. Also on record: scale not given: the % may be the effect or the level left. The following applies: human, probe Enalapril, read-out: Activity.
Substrate in series [5]: CCOC(=O)[C@H](CCc1ccccc1)N[C@@H](C)C(=O)N1CCC[C@H]1C(=O)O
Described as §1.

Broadly, the Ki is a measure of affinity in units of concentration, obtained from inhibition or displacement. Turning to `O=C1OC(c2ccc(O)c(S(=O)(=O)O)c2)(c2ccc(O)c(S(=O)(=O)O)c2)c2c(Br)c(Br)c(Br)c(Br)c21` [SULFOBROMOPHTHALEIN SODIUM], the Ki in series [1] amounted to 1980 nM.

As to `C[C@H](N[C@@H](CCc1ccccc1)C(=O)O)C(=O)N1CCC[C@H]1C(=O)O` [ENALAPRILAT ANHYDROUS], in series [2], the Activity result is “is not a substrate [-]”.

As for `Cc1nccc2c1[nH]c1cc(O)ccc12.O=S(=O)(O)O` [HARMOL SULFATE], the Activity entry in series [2] was “is not a substrate [-]”. In the case of `N[C@@H](CCC(=O)N[C@@H](CSc1c(Br)c(Br)c2c(c1Br)C(=O)OC2(c1ccc(O)c(S(=O)(=O)O)c1)c1ccc(O)c(S(=O)(=O)O)c1)C(=O)NCC(=O)O)C(=O)O`, the activity at 200 µM in series [3] was determined as 78%. The Activity entry in series [2] was “substrate [+]”.

As for `C[C@]12CC[C@@H]3c4ccc(OS(=O)(=O)O)cc4CC[C@H]3[C@@H]1CCC2=O` [ESTRONE SULFURIC ACID], the activity at 100 µM in series [4] was 20%. In series [2], the Activity entry was “substrate [+]”.

B1: Solute carrier organic anion transporter family member 1A1 (Rattus norvegicus) (protein)
chain: T1 sequence (P46720 whole entry)
One may read the Km as the concentration of substrate that gives half-maximal velocity. For B1, in series [5], the Km worked out at 252 µM.
